Literature values in patent US20080300304A1, “Ginger Fraction For Inhibiting Human Cyp Enzymes” (priority 2005, published 2008).

Row | oral availability [%] | Compound
1 | 16% | C=CC[C@@H]1/C=C(\C)C[C@H](C)C[C@H](OC)[C@H]2O[C@@](O)(C(=O)C(=O)N3CCCC[C@H]3C(=O)O[C@H](/C(C)=C/[C@@H]3CC[C@@H](O)[C@H](OC)C3)[C@H](C)[C@@H](O)CC1=O)[C@H](C)C[C@@H]2OC [tacrolimus]
2 | 34% | C/C=C/C[C@@H](C)C(=O)[C@H]1C(=O)N[C@@H](C(C)C)C(=O)N(C)CC(=O)N(C)[C@@H](CC(C)C)C(=O)N[C@@H](C(C)C)C(=O)N(C)[C@@H](CC(C)C)C(=O)N[C@@H](C)C(=O)N[C@H](C)C(=O)N(C)[C@@H](CC(C)C)C(=O)N(C)[C@@H](CC(C)C)C(=O)N(C)[C@@H](C(C)C)C(=O)N1C [valspodar]
3 | 20% | CO[C@H]1/C=C/O[C@@]2(C)Oc3c(C)c(O)c4c(c3C2=O)C2=NC3(CCN(CC(C)C)CC3)NC2=C(NC(=O)/C(C)=C\C=C\[C@H](C)[C@H](O)[C@@H](C)[C@@H](O)[C@@H](C)[C@H](OC(C)=O)[C@@H]1C)C4=O [rifabutin]

More lines, now with the values behind:

Row | Compound | oral availability [%]
4 | CO[C@H]1C[C@@H]2CC[C@@H](C)[C@@](O)(O2)C(=O)C(=O)N2CCCC[C@H]2C(=O)O[C@H]([C@H](C)C[C@@H]2CC[C@@H](O)[C@H](OC)C2)CC(=O)[C@H](C)/C=C(\C)[C@@H](O)[C@@H](OC)C(=O)[C@H](C)C[C@H](C)/C=C/C=C/C=C/1C [sirolimus] | 15%
5 | CC[C@H](C)C(=O)O[C@H]1C[C@@H](C)C=C2C=C[C@H](C)[C@H](CC[C@@H]3C[C@@H](O)CC(=O)O3)[C@H]21 [lovastatin] | 4%
6 | CC(=O)O[C@@]12CO[C@@H]1C[C@H](O)[C@@]1(C)C(=O)[C@H](O)C3=C(C)[C@@H](OC(=O)[C@H](O)[C@@H](NC(=O)OC(C)(C)C)c4ccccc4)C[C@@](O)([C@@H](OC(=O)c4ccccc4)[C@H]21)C3(C)C [docetaxel] | 8%
7 | CCOC(=O)C1=C(C)NC(C)=C(C(=O)OC)C1c1cccc(Cl)c1Cl (stereo not drawn) [felodipine] | 15%
8 | CC(C)c1c(C(=O)Nc2ccccc2)c(-c2ccccc2)c(-c2ccc(F)cc2)n1CC[C@@H](O)C[C@@H](O)CC(=O)O [atorvastatin] | 12%
9 | COc1cc(N)c(Cl)cc1C(=O)NC1CCN(CCCOc2ccc(F)cc2)CC1OC (stereo not drawn) [cisapride] | 38%
